The target of one test is RNR (RNR1:RNR2 1:1) (Homo sapiens (Human), UniProt P23921). Nature of the test: RNR enzyme activity, rapid-fire mass spectrometry (RF/MS) assay. Particulars: RNR 50 nM, 1:1 RNR1:RNR2; CDP 5 μM, ATP 1 mM; 37° C., 45 min; compounds screened up to 50 μM. The format is biochemical. As to the method:
A rapid-fire mass spectrometry (RF/MS) assay was used to assess RNR enzyme activity using a 384 well plate and a robotic platform.
The plate layout included two validated reference compounds (Triapine (3-AP) and Hydroxyurea (HU)): • A dose response in duplicate; top concentration: 5 μM (3-AP) and 250 μM (HU), semi-log • dilutions. • Spike wells in triplicate randomly spotted at four concentrations: • 250 μM, 100 μM, 30 μM and 2 μM for HU • 5 μM, 2 μM, 0.6 μM and 0.04 μM for 3-AP
First, the multidrop pipes were saturated for 30 minutes with enzymatic solution. Then 30 μL of Stop solution was distributed in column 24. Next, 15 μL of enzyme was distributed in column 1 to 24. Next, a pre-incubation step of 15 minutes at room temperature occurred, followed by distribution of 15 μL of substrate solution (column 1 to 24). Next, the plate was incubated for 45 minutes at 37° C. 30 μL of Stop solution was distributed to columns 1 to 23.
The final parameters for the enzyme reactions were: • Incubation: 37° C., 45 min • [CDP]: 5 μM; [ATP]: 1 mM; [NADPH]: No • [RNR]final: 50 nM with 1:1 (RNR1:RNR2) ratio • Final volume: 30 μL • Stop solution: 6% HCOOH containing 2 μM of 15

Test [1] deals with pCHK1 (S345) in Colo320 DM cells. The test can be described thus: Alphalisa assay: pCHK1 (S345) detection in Colo320 DM cells. Type of test: cell-based, human. Particulars: compound incubation overnight (approximately 16 hours), pCHK1 (S345) AlphaLisa Sure Fire kit. Here is the method: Colo320 DM cells (ATCC #CCL-220, derived from human colorectal adenocarcinoma, Dukes' type C) were seeded on a 96-well, cell culture treated assay plate at a density of 50,000 cells/well in 200 μL of RPMI-1640 media supplemented with 10% Fetal Bovine Serum and incubated at 37 degrees Celsius overnight. The following day, test compound dilutions were added directly to the plated cells by a Tecan digital dispenser to a final DMSO concentration of <0.5%. and incubated at 37 degrees Celsius overnight (approximately 16 hours). The following day all cull culture media was removed from the cells. 75 μL of 1× AlphaLisa lysis buffer was added to each well and plates were agitated on a shaker for 30 minutes at room temperature. The lysis of cells and detection of pCHK1 (S345) were performed with regents contained within the AlphaLisa Sure Fire assay kit (Perkin Elmer #ALSU-PCHK1-A) according to the manufacturer's instructions. 10 μL of each lysate was then transferred to a white, 384-well assay plate (Perkin Elmer #6008280). 5 μL of Acceptor mix was then added to each well of lysate in the white, 384-well assay plate and incubated in the dark at room temperature for 60 minutes. 5 μL of Donor mix was then added to each well of the white, 384-well assay plate in subdued light and incubated at room temperature for 60 minutes. Plates were read on an Alpha Technology-compatible plate reader using standard AlphaLisa settings.

Chain of RNR (RNR1:RNR2 1:1) (P23921 whole entry): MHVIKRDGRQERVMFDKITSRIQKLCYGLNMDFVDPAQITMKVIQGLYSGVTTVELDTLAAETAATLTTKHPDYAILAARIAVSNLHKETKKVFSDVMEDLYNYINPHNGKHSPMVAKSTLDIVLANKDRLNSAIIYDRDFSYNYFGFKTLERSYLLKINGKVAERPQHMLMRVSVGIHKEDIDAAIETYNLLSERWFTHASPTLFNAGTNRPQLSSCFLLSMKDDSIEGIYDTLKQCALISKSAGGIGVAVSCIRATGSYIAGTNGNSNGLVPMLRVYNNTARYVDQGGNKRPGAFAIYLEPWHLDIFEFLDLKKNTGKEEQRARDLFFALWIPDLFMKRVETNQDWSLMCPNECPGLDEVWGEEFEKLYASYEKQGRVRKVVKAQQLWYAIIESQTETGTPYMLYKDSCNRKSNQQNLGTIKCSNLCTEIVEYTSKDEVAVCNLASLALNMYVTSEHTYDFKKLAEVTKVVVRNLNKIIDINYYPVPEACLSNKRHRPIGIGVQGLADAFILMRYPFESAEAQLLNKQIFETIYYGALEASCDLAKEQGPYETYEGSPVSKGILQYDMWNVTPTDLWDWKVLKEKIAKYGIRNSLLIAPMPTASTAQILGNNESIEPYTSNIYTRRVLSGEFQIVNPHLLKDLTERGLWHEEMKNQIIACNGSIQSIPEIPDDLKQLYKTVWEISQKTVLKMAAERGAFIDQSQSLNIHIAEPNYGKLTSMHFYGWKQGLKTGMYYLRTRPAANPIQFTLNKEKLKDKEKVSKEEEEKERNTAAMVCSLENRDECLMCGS

As usually defined, the IC50 is the concentration needed to halve the response being measured. `COc1cc(Cl)cc2c1S(=O)(=O)N([C@@H](c1n[nH]c(=O)o1)[C@@H](C)c1c(F)ccc(C)c1C)C2=O` (stereo in doubt) [Example 3, 5-((1R,2S)-1-(5-chloro-7-methoxy-1,1-dioxido-3-oxobenzo[d]isothiazol-2(3H)-yl)-2-(6-fluoro-2,3-dimethylphenyl)propyl)-1,3,4-oxadiazol-2(3H)-one]: the IC50 against RNR (RNR1:RNR2 1:1) is 10 to 100 µM; in test [1] it was more than 50 µM.

Regarding `COc1cc(Cl)cc2c1S(=O)(=O)N([C@@H](c1n[nH]c(=O)o1)[C@H](C)c1c(F)ccc(C)c1C)C2=O` (stereo in doubt) [Example 4, 5-((1R,2R)-1-(5-chloro-7-methoxy-1,1-dioxido-3-oxobenzo[d]isothiazol-2(3H)-yl)-2-(6-fluoro-2,3-dimethylphenyl)propyl)-1,3,4-oxadiazol-2(3H)-one], the IC50 at RNR (RNR1:RNR2 1:1) is 10 to 100 µM; in test [1] (Homo sapiens, COLO 320DM), more than 50 µM.

`COc1cc(Cl)cc2c1S(=O)(=O)N([C@@H](c1n[nH]c(=O)o1)[C@@H](C)c1c(F)ccc(C)c1C)C2=O` (stereo in doubt) [Example 15, 5-((1R,2S)-1-(5-chloro-7-methoxy-1,1-dioxido-3-oxobenzo[d]isothiazol-2(3H)-yl)-2-(6-fluoro-2,3-dimethylphenyl)propyl)-1,3,4-oxadiazol-2(3H)-one]: the IC50 against RNR (RNR1:RNR2 1:1) is 10 to 100 µM; in test [1] (Homo sapiens, COLO 320DM), more than 50 µM.

Regarding `Cc1ccc(F)c([C@@H](C)[C@@H](c2n[nH]c(=O)o2)N2C(=O)c3cc(Cl)ccc3S2(=O)=O)c1C` [Example 1, 5-((1S,2R)-1-(5-chloro-1,1-dioxido-3-oxobenzo[d]isothiazol-2(3H)-yl)-2-(6-fluoro-2,3-dimethylphenyl)propyl)-1,3,4-oxadiazol-2(3H)-one], the IC50 against RNR (RNR1:RNR2 1:1) is 10 to 100 µM; in test [1] (Homo sapiens, COLO 320DM), more than 50 µM.

As to `Cc1ccc(F)c([C@H](C)[C@@H](c2n[nH]c(=O)o2)N2C(=O)c3cc(Cl)ccc3S2(=O)=O)c1C` [Example 2, 5-((1S,2S)-1-(5-chloro-1,1-dioxido-3-oxobenzo[d]isothiazol-2(3H)-yl)-2-(6-fluoro-2,3-dimethylphenyl)propyl)-1,3,4-oxadiazol-2(3H)-one], the IC50 against RNR (RNR1:RNR2 1:1) is 1 to 10 µM; in test [1] (Homo sapiens, COLO 320DM), more than 50 µM.

`COc1cc(Cl)cc2c1S(=O)(=O)N([C@H](c1n[nH]c(=O)o1)[C@@H](C)c1c(F)ccc(C)c1C)C2` [Example 5, 5-((1S,2S)-1-(5-chloro-7-methoxy-1,1-dioxidobenzo [d]isothiazol-2(3H)-yl)-2-(6-fluoro-2,3-dimethylphenyl)propyl)-1,3,4-oxadiazol-2(3H)-one]: the IC50 against RNR (RNR1:RNR2 1:1) is 10 to 100 µM; in test [1] (Homo sapiens, COLO 320DM) it was more than 50 µM.

On to `COc1cc(Cl)cc2c1S(=O)(=O)N([C@H](c1n[nH]c(=O)o1)[C@H](C)c1c(F)ccc(C)c1C)C2` [Example 6, 5-((1S,2R)-1-(5-chloro-7-methoxy-1,1-dioxidobenzo [d]isothiazol-2(3H)-yl)-2-(6-fluoro-2,3-dimethylphenyl)propyl)-1,3,4-oxadiazol-2(3H)-one], for which the IC50 against RNR (RNR1:RNR2 1:1) is 1 to 10 µM; in test [1] (Homo sapiens, COLO 320DM), more than 50 µM.

As to `Cc1ccc(F)c([C@@H](C)[C@@H](c2n[nH]c(=O)o2)N2CCc3cc(Cl)ccc3S2(=O)=O)c1C` [Example 7, 5-((1S,2R)-1-(6-chloro-1,1-dioxido-3,4-dihydro-2H-benzo[e][1,2]thiazin-2-yl)-2-(6-fluoro-2,3-dimethylphenyl)propyl)-1,3,4-oxadiazol-2(3H)-one], the IC50 on RNR (RNR1:RNR2 1:1) was not above 0.1 µM; in test [1] (Homo sapiens, COLO 320DM), not above 5 µM.

In the case of `Cc1ccc(F)c([C@H](C)[C@H](c2n[nH]c(=O)o2)N2CCc3cc(Cl)ccc3S2(=O)=O)c1C` [Example 8, 5-((1R,2S)-1-(6-chloro-1,1-dioxido-3,4-dihydro-2H-benzo[e][1,2]thiazin-2-yl)-2-(6-fluoro-2,3-dimethylphenyl)propyl)-1,3,4-oxadiazol-2(3H)-one], the IC50 on RNR (RNR1:RNR2 1:1) was 10 to 100 µM; in test [1] (Homo sapiens, COLO 320DM), more than 50 µM.

Take `Cc1ccc(F)c([C@@H](C)[C@@H](c2n[nH]c(=O)o2)N2CCCc3cc(Cl)ccc3S2(=O)=O)c1C` [Example 9, 5-((1S,2R)-1-(7-chloro-1,1-dioxido-4,5-dihydrobenzo [f][1,2]thiazepin-2(3H)-yl)-2-(6-fluoro-2,3-dimethylphenyl)propyl)-1,3,4-oxadiazol-2(3H)-one]: the 50% inhibitory concentration (IC50) against RNR (RNR1:RNR2 1:1) is not above 0.1 µM; in test [1] (Homo sapiens, COLO 320DM) it was not above 5 µM.

`Cc1ccc(F)c([C@H](C)[C@@H](c2n[nH]c(=O)o2)N2CCCc3cc(Cl)ccc3S2(=O)=O)c1C` [Example 10, 5-((1S,2S)-1-(7-chloro-1,1-dioxido-4,5-dihydrobenzo [f][1,2]thiazepin-2(3H)-yl)-2-(6-fluoro-2,3-dimethylphenyl)propyl)-1,3,4-oxadiazol-2(3H)-one]: the IC50 on RNR (RNR1:RNR2 1:1) was 10 to 100 µM; in test [1] (Homo sapiens, COLO 320DM), more than 50 µM.

Regarding `Cc1ccc(F)c([C@@H](C)[C@@H](c2n[nH]c(=O)o2)N2CCc3ccc(Cl)cc3S2(=O)=O)c1C` [Example 11, 5-((1S,2R)-1-(7-chloro-1,1-dioxido-3,4-dihydro-2H-benzo[e][1,2]thiazin-2-yl)-2-(6-fluoro-2,3-dimethylphenyl)propyl)-1,3,4-oxadiazol-2(3H)-one], the IC50 on RNR (RNR1:RNR2 1:1) was 0.1 to 1 µM; in test [1] (Homo sapiens, COLO 320DM) it was more than 50 µM.

Consider `Cc1ccc(F)c([C@H](C)[C@@H](c2n[nH]c(=O)o2)N2CCc3ccc(Cl)cc3S2(=O)=O)c1C` [Example 12, 5-((1S,2s)-1-(7-chloro-1,1-dioxido-3,4-dihydro-2H-benzo[e][1,2]thiazin-2-yl)-2-(6-fluoro-2,3-dimethylphenyl)propyl)-1,3,4-oxadiazol-2(3H)-one], for which the IC50 at RNR (RNR1:RNR2 1:1) was 10 to 100 µM; in test [1] (Homo sapiens, COLO 320DM), more than 50 µM.

As to `Cc1ccc(F)c([C@@H](C)[C@@H](c2nn[nH]n2)N2CCc3cc(Cl)ccc3S2(=O)=O)c1C` [Example 13, 6-chloro-2-((1S,2R)-2-(6-fluoro-2,3-dimethylphenyl)-1-(2H-tetrazol-5-yl)propyl)-3,4-dihydro-2H-benzo[e][1,2] thiazine 1,1-dioxide], the IC50 against RNR (RNR1:RNR2 1:1) was not above 0.1 µM; in test [1] (Homo sapiens, COLO 320DM), 5 to 10 µM.

`Cc1ccc(F)c([C@@H](C)[C@@H](c2n[nH]c(=O)o2)N2Cc3cc(Cl)ccc3S2(=O)=O)c1C` [Example 14, 5-((1S,2R)-1-(5-chloro-1,1-dioxidobenzo [d]isothiazol-2(3H)-yl)-2-(6-fluoro-2,3-dimethylphenyl)propyl)-1,3,4-oxadiazol-2(3H)-one]: the IC50 against RNR (RNR1:RNR2 1:1) was 1 to 10 µM; in test [1] (Homo sapiens, COLO 320DM), more than 50 µM.

`Cc1ccc(F)c(C(C)[C@@H](c2n[nH]c(=O)o2)N2CC(=O)c3cc(Cl)ccc3S2(=O)=O)c1C` (stereo partly drawn) [Example 16, 5-((1S)-1-(6-chloro-1,1-dioxido-4-oxo-3,4-dihydro-2H-benzo[e] [1,2]thiazin-2-yl)-2-(6-fluoro-2,3-dimethylphenyl)propyl)-1,3,4-oxadiazol-2(3H)-one]: the half-inhibitory concentration (IC50) against RNR (RNR1:RNR2 1:1) is 0.1 to 1 µM; in test [1] (Homo sapiens, COLO 320DM) it was 5 to 10 µM.

Regarding `Cc1ccc(F)c(C(C)[C@@H](c2n[nH]c(=O)o2)N2C(=O)Cc3cc(Cl)ccc3S2(=O)=O)c1C` (stereo partly drawn) [Example 17, 5-((1S)-1-(6-chloro-1,1-dioxido-3-oxo-3,4-dihydro-2H-benzo[e] [1,2]thiazin-2-yl)-2-(6-fluoro-2,3-dimethylphenyl)propyl)-1,3,4-oxadiazol-2(3H)-one], the IC50 on RNR (RNR1:RNR2 1:1) was 10 to 100 µM; in test [1] (Homo sapiens, COLO 320DM), more than 50 µM.

As to `Cc1ccc(F)c([C@@H](C)[C@@H](c2n[nH]c(=O)o2)N2CCc3ccccc3S2(=O)=O)c1C` [Example 18, 5-((1S,2R)-1-(1,1-dioxido-3,4-dihydro-2H-benzo[e] [1,2]thiazin-2-yl)-2-(6-fluoro-2,3-dimethylphenyl)propyl)-1,3,4-oxadiazol-2(3H)-one], the IC50 was 0.1 to 1 µM at RNR (RNR1:RNR2 1:1) and 10 to 50 µM in test [1] (Homo sapiens, COLO 320DM).

`Cc1ccc(F)c([C@@H](C)[C@@H](c2n[nH]c(=O)o2)N2CC(O)c3cc(Cl)ccc3S2(=O)=O)c1C` (stereo partly drawn) [Example 19, 5-((1S,2R)-1-(6-chloro-4-hydroxy-1,1-dioxido-3,4-dihydro-2H-benzo[e][1,2]thiazin-2-yl)-2-(6-fluoro-2,3-dimethylphenyl)propyl)-1,3,4-oxadiazol-2(3H)-one]: the IC50 is 0.1 to 1 µM against RNR (RNR1:RNR2 1:1) and 10 to 50 µM in test [1] (Homo sapiens, COLO 320DM).
